Source: patent US8952024B2, “Herbicidal pyrimidone derivatives” (E I du Pont de Nemours and Company, priority 2009, dated 2015)

Experiments:
Assay type in all cases: in vivo
Conditions in all cases: Postemergence
[1] = tested on: bermudagrass (Cynodon dactylon); assay: Test B pre-/postemergence plant response
Procedure, shortened: (§1)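 Each species received compound formulated in non-phytotoxic solvent with surfactant, either at planting into a loam and sand blend or as a foliar spray once plants reached 2 to 18 cm in peat-based medium. Plants stayed in the greenhouse 13 to 15 days before visual evaluation against controls, scored 0 (no effect) to 100 (complete control).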

[2] = tested on: blackgrass (Alopecurus myosuroides); assay: Test B pre-/postemergence plant response
Procedure, shortened: as §1

[3] = tested on: cocklebur (Xanthium strumarium); assay: Test B pre-/postemergence plant response
Procedure, shortened: as §1

corn (Zea mays) = assay: Test B pre-/postemergence plant response
Procedure, shortened: as §1

[4] = tested on: giant foxtail (Setaria faberii); assay: Test B pre-/postemergence plant response
Procedure, shortened: as §1

[5] = tested on: johnsongrass (Sorghum halepense); assay: Test B pre-/postemergence plant response
Procedure, shortened: as §1

kochia (Kochia scoparia) = assay: Test B pre-/postemergence plant response
Procedure, shortened: as §1

[6] = tested on: morningglory (Ipomoea coccinea); assay: Test B pre-/postemergence plant response
Procedure, shortened: as §1

soybean (Glycine max) = assay: Test B pre-/postemergence plant response
Procedure, shortened: as §1

wild oat (Avena fatua) = assay: Test B pre-/postemergence plant response
Procedure, shortened: as §1

[7] = tested on: canarygrass (Phalaris minor); assay: Test B postemergence plant response
Procedure, shortened: (§2)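 Visual ratings from 0 (no effect) to 100 (complete control), made against controls 13–15 days after treatment, kept in a greenhouse. Compounds were applied postemergence to potted plants at the 1- to 4-leaf stage (2–18 cm).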

[8] = tested on: chickweed (Stellaria media); assay: Test B postemergence plant response
Procedure, shortened: as §2

[9] = tested on: windgrass (Apera spica-venti); assay: Test B postemergence plant response
Procedure, shortened: as §2

[10] = tested on: winter barley (Hordeum vulgare); assay: Test B postemergence plant response
Procedure, shortened: as §2

[11] = 31 g ai/ha, 0 to 100 scale (0 no effect, 100 complete control)
[12] = 62 g ai/ha, scale 0 to 100 (0 no effect, 100 complete control)
[13] = 125 g ai/ha, scale 0 to 100 (0 no effect, 100 complete control)
[14] = 250 g ai/ha, scale 0 to 100 (0 no effect, 100 complete control), 13 to 15 days

## CC1(C)CC(=O)C(C(=O)c2cnc(-c3ccccc3)n(-c3ccccc3)c2=O)=C(O)C1 [Compound 225]
[1]; 16 g ai/ha, 0 to 100 scale
  Plant response rating, Bermudagrass: 40
[1]; [11]
  Plant response rating, Bermudagrass: 80
[1]; [12]
  Plant response rating, Bermudagrass: 85
[1]; [13]
  Plant response rating, Bermudagrass: 85
[2]; 16 g ai/ha, 0 to 100 scale
  Plant response rating, Blackgrass: 0
[2]; [11]
  Plant response rating, Blackgrass: 0
[2]; [12]
  Plant response rating, Blackgrass: 5
[2]; [13]
  Plant response rating, Blackgrass: 15
[3]; 16 g ai/ha, 0 to 100 scale
  Plant response rating, Cocklebur: 85
[3]; [11]
  Plant response rating, Cocklebur: 98
[3]; [12]
  Plant response rating, Cocklebur: 100
[3]; [13]
  Plant response rating, Cocklebur: 100
Corn (Zea mays); 16 g ai/ha, 0 to 100 scale
  Plant response rating, Corn: 10
Corn (Zea mays); [11]
  Plant response rating, Corn: 40
Corn (Zea mays); [12]
  Plant response rating, Corn: 50
Corn (Zea mays); [13]
  Plant response rating, Corn: 70
[4]; 16 g ai/ha, 0 to 100 scale
  Plant response rating, Foxtail, Giant: 75
[4]; [11]
  Plant response rating, Foxtail, Giant: 75
[4]; [12]
  Plant response rating, Foxtail, Giant: 80
[4]; [13]
  Plant response rating, Foxtail, Giant: 85
[5]; 16 g ai/ha, 0 to 100 scale
  Plant response rating, Johnsongrass: 20
[5]; [11]
  Plant response rating, Johnsongrass: 60
[5]; [12]
  Plant response rating, Johnsongrass: 75
[5]; [13]
  Plant response rating, Johnsongrass: 75
Kochia (Kochia scoparia); 16 g ai/ha, 0 to 100 scale
  Plant response rating, Kochia: 5
Kochia (Kochia scoparia); [11]
  Plant response rating, Kochia: 5
Kochia (Kochia scoparia); [12]
  Plant response rating, Kochia: 10
Kochia (Kochia scoparia); [13]
  Plant response rating, Kochia: 15
[6]; 16 g ai/ha, 0 to 100 scale
  Plant response rating, Morningglory: 80
[6]; [11]
  Plant response rating, Morningglory: 95
[6]; [12]
  Plant response rating, Morningglory: 95
[6]; [13]
  Plant response rating, Morningglory: 95
Soybean (Glycine max); 16 g ai/ha, 0 to 100 scale
  Plant response rating, Soybean: 65
Soybean (Glycine max); [11]
  Plant response rating, Soybean: 85
Soybean (Glycine max); [12]
  Plant response rating, Soybean: 95
Wild oat (Avena fatua); 16 g ai/ha, 0 to 100 scale
  Plant response rating, Oat, Wild: 25
Wild oat (Avena fatua); [11]
  Plant response rating, Oat, Wild: 45
Wild oat (Avena fatua); [12]
  Plant response rating, Oat, Wild: 50
[7]; 16 g ai/ha, 0 to 100 scale
  Plant response rating, Canarygrass: 55
[7]; [11]
  Plant response rating, Canarygrass: 60
[7]; [12]
  Plant response rating, Canarygrass: 85
[7]; [13]
  Plant response rating, Canarygrass: 85
[8]; 16 g ai/ha, 0 to 100 scale
  Plant response rating, Chickweed: 15
[8]; [11]
  Plant response rating, Chickweed: 25
[8]; [12]
  Plant response rating, Chickweed: 40
[8]; [13]
  Plant response rating, Chickweed: 95
[9]; 16 g ai/ha, 0 to 100 scale
  Plant response rating, Windgrass: 5
[9]; [11]
  Plant response rating, Windgrass: 50
[9]; [12]
  Plant response rating, Windgrass: 55
[10]; 16 g ai/ha, 0 to 100 scale
  Plant response rating, Barley: 5
[10]; [11]
  Plant response rating, Barley: 20
[10]; [12]
  Plant response rating, Barley: 35
[10]; [13]
  Plant response rating, Barley: 40

## CCCn1c(-c2ccsc2)ncc(C(=O)C2=C(O)C3CCC(C3)C2=O)c1=O (stereo not shown) [Compound 227]
[1]; [11]
  Plant response rating, Bermudagrass: 75
[1]; [12]
  Plant response rating, Bermudagrass: 75
[1]; [13]
  Plant response rating, Bermudagrass: 85
[1]; [14]
  Plant response rating, Bermudagrass: 90
[2]; [11]
  Plant response rating, Blackgrass: 0
[2]; [12]
  Plant response rating, Blackgrass: 0
[2]; [13]
  Plant response rating, Blackgrass: 5
[2]; [14]
  Plant response rating, Blackgrass: 20
[3]; [11]
  Plant response rating, Cocklebur: 75
[3]; [12]
  Plant response rating, Cocklebur: 80
[3]; [13]
  Plant response rating, Cocklebur: 95
[3]; [14]
  Plant response rating, Cocklebur: 95
Corn (Zea mays); [11]
  Plant response rating, Corn: 20
Corn (Zea mays); [12]
  Plant response rating, Corn: 75
Corn (Zea mays); [13]
  Plant response rating, Corn: 75
Corn (Zea mays); [14]
  Plant response rating, Corn: 85
[4]; [11]
  Plant response rating, Foxtail, Giant: 75
[4]; [12]
  Plant response rating, Foxtail, Giant: 80
[4]; [13]
  Plant response rating, Foxtail, Giant: 90
[4]; [14]
  Plant response rating, Foxtail, Giant: 98
[5]; [11]
  Plant response rating, Johnsongrass: 45
[5]; [12]
  Plant response rating, Johnsongrass: 60
[5]; [13]
  Plant response rating, Johnsongrass: 60
[5]; [14]
  Plant response rating, Johnsongrass: 65
Kochia (Kochia scoparia); [11]
  Plant response rating, Kochia: 70
Kochia (Kochia scoparia); [12]
  Plant response rating, Kochia: 75
Kochia (Kochia scoparia); [13]
  Plant response rating, Kochia: 85
Kochia (Kochia scoparia); [14]
  Plant response rating, Kochia: 100
[6]; [11]
  Plant response rating, Morningglory: 100
[6]; [12]
  Plant response rating, Morningglory: 100
[6]; [13]
  Plant response rating, Morningglory: 100
[6]; [14]
  Plant response rating, Morningglory: 100
Soybean (Glycine max); [11]
  Plant response rating, Soybean: 55
Soybean (Glycine max); [12]
  Plant response rating, Soybean: 65
Soybean (Glycine max); [14]
  Plant response rating, Soybean: 98
Wild oat (Avena fatua); [11]
  Plant response rating, Oat, Wild: 0
Wild oat (Avena fatua); [12]
  Plant response rating, Oat, Wild: 0
Wild oat (Avena fatua); [14]
  Plant response rating, Oat, Wild: 30
[7]; [11]
  Plant response rating, Canarygrass: 0
[7]; [12]
  Plant response rating, Canarygrass: 0
[7]; [13]
  Plant response rating, Canarygrass: 5
[7]; [14]
  Plant response rating, Canarygrass: 10
[8]; [11]
  Plant response rating, Chickweed: 65
[8]; [12]
  Plant response rating, Chickweed: 75
[8]; [13]
  Plant response rating, Chickweed: 80
[8]; [14]
  Plant response rating, Chickweed: 90
[9]; [11]
  Plant response rating, Windgrass: 0
[9]; [12]
  Plant response rating, Windgrass: 30
[9]; [14]
  Plant response rating, Windgrass: 50
[10]; [11]
  Plant response rating, Barley: 0
[10]; [12]
  Plant response rating, Barley: 5
[10]; [13]
  Plant response rating, Barley: 5
[10]; [14]
  Plant response rating, Barley: 30
